Data as given in patent US20030225279A1, “Stavudine Polymorphic Form 1 process” (priority 2000, published 2003).
“Also recorded” adds a separate entry of the source.

Experiments:
[1] = Solubility in supercritical carbon dioxide; type: physicochemical; conditions: supercritical carbon dioxide as antisolvent
[2] = solid state, relative to Forms II and III; cited from earlier work

Row | SMILES | solubility in supercritical carbon dioxide [1] | thermodynamic stability / transformation to other polymorphic forms [2]
1 | Cc1cn([C@H]2C=C[C@@H](CO)O2)c(=O)[nH]c1=O [Stavudine, 2′, 3′-didehydro-3′-deoxythymidine] | practically insoluble | –
2 | Cc1cn([C@H]2C=C[C@@H](CO)O2)c(=O)[nH]c1=O [Form I, 2′, 3′-didehydro-3′-deoxythymidine] | – | stable and shows no transformations to other polymorphic forms; also recorded: most thermodynamically stable form, with no tendency for solid state conversion to the other Forms
